Starred links: 1 amine or outer side, 2 acyl side, 3 side chain; linkers in the order of their positions; H or OH if unused. Non-standard residues stand in square brackets, D forms with d. Residues, ends and D or L forms follow the SMILES beside them. X62 = COCCN1CCN(CCC[C@@H](C)[C@@H](C(=O)[*:2])N(C)[*:1])CC1; X41 = CC(C)N1CCN(C[C@@H](C)[C@@H](C(=O)[*:2])N(C)[*:1])CC1; X55 = C[C@H](CN(C)CC(=O)N(C)C)[C@@H](C(=O)[*:2])N(C)[*:1]; NMe(dihydroBmt) = CCCC[C@@H](C)[C@@H](O)[C@H](NC)C(=O)O; X9 = C[C@@H](CN1CCOCC1)[C@@H](C(=O)[*:2])N(C)[*:1]; MeBmt = C/C=C/C[C@@H](C)[C@@H](O)[C@H](NC)C(=O)O; NMeL = CN[C@@H](CC(C)C)C(=O)O; NMeV = CN[C@H](C(=O)O)C(C)C; dNMeA = CN[C@H](C)C(=O)O; Abu = CC[C@H](N)C(=O)O
What was measured:
[1] = tested on: genotype 1b subgenomic HCV replicon in Huh7.5 cells; type: cell-based, hepatitis C virus; details: genotype 1b replicon, 72 h incubation; read-out: RPLN-1b IC50
Outline: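 Replicon inhibition read as renilla luciferase signal versus DMSO controls after 72 h incubation, in Huh7.5 cells harbouring a genotype 1b subgenomic replicon; medium phenol red-free DMEM lacking G418. CC50 determined in parallel via Cell Titer-Glo.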

CypF = CypF (Homo sapiens (Human), UniProt P30405); test: Inhibitor binding to cyclophilin proteins by SPR, CypF; details: 1:1 binding model
CypF, sequence (P30405 30-207): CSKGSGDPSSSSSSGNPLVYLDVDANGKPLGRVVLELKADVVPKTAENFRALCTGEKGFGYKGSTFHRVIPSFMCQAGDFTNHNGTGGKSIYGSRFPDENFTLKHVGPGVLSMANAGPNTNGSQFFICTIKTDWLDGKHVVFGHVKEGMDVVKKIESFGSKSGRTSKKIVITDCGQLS
Outline: (§1)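 Running buffer: 10 mM HEPES pH 7.4, 150 mM NaCl, 0.05% P20, 3% DMSO, with compound present. Capture of avi-tagged mono-biotinylated cyclophilin; single-cycle series, 1 min contact, 10 min dissociation. Rates and affinity fitted to a 1:1 interaction model.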

[2] = tested on: peripheral blood mononuclear cells (PBMC); test: Anti-proliferative or immunosuppressive activity, BrdU incorporation in PHA-stimulated PBMC; type: cell-based; details: PHA 3 μg/ml, 60 hour compound treatment; read-out: EMV PBMC IC50
Outline: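 BrdU ELISA read-out of DNA synthesis in freshly isolated PBMCs (two donors, 30,000 cells/well, X-VIVO 15). T-cell proliferation triggered with phytohemagglutinin at 3 μg/ml.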

CYP3A4 = CYP3A4 (Homo sapiens (Human), UniProt P08684); test: Time-dependent inhibition of CYP3A4;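 also: Two-step in vitro assay, kobs derived from residual CYP3A4 activity versus preincubation time per concentration, then kinact and KI by nonlinear fit of kobs against concentration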
CYP3A4, sequence (P08684 whole entry): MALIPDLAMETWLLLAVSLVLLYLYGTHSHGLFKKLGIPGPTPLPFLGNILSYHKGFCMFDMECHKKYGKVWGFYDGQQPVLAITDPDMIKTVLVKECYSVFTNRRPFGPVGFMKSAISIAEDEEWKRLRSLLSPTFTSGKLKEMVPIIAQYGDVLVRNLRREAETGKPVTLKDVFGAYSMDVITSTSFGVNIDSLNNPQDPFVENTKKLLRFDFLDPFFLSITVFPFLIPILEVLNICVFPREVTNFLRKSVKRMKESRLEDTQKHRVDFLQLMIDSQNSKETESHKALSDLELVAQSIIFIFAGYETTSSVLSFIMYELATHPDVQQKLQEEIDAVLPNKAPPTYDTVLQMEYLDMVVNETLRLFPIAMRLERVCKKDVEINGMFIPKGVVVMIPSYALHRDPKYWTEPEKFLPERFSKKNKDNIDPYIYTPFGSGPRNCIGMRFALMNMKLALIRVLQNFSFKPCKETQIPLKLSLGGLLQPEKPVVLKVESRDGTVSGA

cyclophilin B (CypB) = cyclophilin B (CypB) (Homo sapiens (Human), UniProt P23284); test: Inhibitor binding to cyclophilin proteins by SPR, CypB; set-up: unit not given here; details: 1:1 binding model
cyclophilin B (CypB), sequence (P23284 34-216): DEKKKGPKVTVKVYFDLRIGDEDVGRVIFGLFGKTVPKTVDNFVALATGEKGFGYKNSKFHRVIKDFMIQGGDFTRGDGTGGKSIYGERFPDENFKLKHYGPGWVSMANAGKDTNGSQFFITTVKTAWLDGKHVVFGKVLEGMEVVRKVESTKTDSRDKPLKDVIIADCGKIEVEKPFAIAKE
Outline: as §1

cyclophilin A (CypA) = cyclophilin A (CypA) (Homo sapiens (Human), UniProt P62937); test: Inhibitor binding to cyclophilin proteins by SPR, CypA; set-up: unit not given here; details: 1:1 binding model;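 also: Single-cycle kinetics on a Biacore T200, compound injected at several concentrations for 1 min each at 50 µL/min, then 10 min dissociation, in HEPES pH 7.4 buffer with 3% DMSO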
cyclophilin A (CypA), sequence (P62937 whole entry): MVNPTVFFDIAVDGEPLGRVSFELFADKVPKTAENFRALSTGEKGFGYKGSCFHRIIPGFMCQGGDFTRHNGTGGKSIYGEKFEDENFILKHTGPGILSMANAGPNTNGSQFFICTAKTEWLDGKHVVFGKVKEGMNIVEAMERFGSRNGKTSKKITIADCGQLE

[3] = biological target: organic anion transporting polypeptide 1B1 (OATP1B1) (Homo sapiens (Human), UniProt Q9Y6L6); test: OATP assay in CHO-OATP1B1 cells;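 also: inhibition of probe substrate uptake into the cells, ten minutes exposure, accumulated substrate read by fluorescence once cells were lysed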
organic anion transporting polypeptide 1B1 (OATP1B1), sequence (Q9Y6L6 whole entry): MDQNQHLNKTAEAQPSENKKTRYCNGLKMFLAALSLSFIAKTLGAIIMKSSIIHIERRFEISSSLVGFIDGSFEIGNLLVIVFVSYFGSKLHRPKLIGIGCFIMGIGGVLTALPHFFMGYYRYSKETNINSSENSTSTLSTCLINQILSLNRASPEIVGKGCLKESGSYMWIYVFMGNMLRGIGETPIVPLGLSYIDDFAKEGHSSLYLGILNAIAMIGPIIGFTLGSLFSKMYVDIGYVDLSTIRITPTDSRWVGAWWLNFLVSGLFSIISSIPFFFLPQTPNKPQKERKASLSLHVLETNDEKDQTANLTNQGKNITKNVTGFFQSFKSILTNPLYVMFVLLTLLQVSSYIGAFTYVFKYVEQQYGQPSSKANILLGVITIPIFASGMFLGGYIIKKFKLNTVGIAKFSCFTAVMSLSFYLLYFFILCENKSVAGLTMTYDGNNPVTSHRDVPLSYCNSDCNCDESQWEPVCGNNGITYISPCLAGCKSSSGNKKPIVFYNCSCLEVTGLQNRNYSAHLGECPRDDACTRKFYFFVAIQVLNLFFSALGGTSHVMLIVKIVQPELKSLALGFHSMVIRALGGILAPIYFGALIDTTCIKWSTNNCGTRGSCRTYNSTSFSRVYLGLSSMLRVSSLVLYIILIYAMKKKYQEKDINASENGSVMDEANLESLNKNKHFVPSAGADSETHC
Protocol: In order to determine whether the compounds of the present invention interact with hepatic transporters, experiments were carried out that compared the concentration-dependent inhibition toward the organic anion transporting polypeptide 1B1 (OATP1B1) and the multidrug resistance associated protein 2 (MRP2).
The cells were cultured in DMEM/F12 +10% FBS+2 mM Ala-Gln+1% Pen-Strep for a period of two days, and the media was changed one day post-seeding. Prior to the assay, media was aspirated and were washed −3× with HBSS+10 mM HEPES and the solution was equilibrated for 15 min in HBSS+10 mM HEPES. Solutions containing the inhibitor were prepared in HBSS+10 mM HEPES (up to 1% DMSO). […] After 10 min, the substrate or substrate/inhibitor solution was aspirated and the cells were washed 3× with HBSS+10 mM HEPES. The amount of the transported probe substrate was determined by fluorescent photometry after cell lysis, and the IC50 was derived from the concentration-response curve.

Structure (SMILES) | IC50 [1] [nM] | CypF Kd (CypF) [nM] | IC50 [2] [nM] | Ki (CYP3A4) [nM] | CypB Kd (cyclophilin B (CypB)) | CypA Kd (cyclophilin A (CypA)) | IC50 [3] [nM]
C/C=C/C[C@@H](C)[C@@H](O)[C@H]1C(=O)N[C@@H](CC)C(=O)N(C)[C@H](C)C(=O)N(C)[C@@H]([C@H](C)CCN2CCOCC2)C(=O)N[C@@H](C(C)C)C(=O)N(C)[C@@H](CC(C)C)C(=O)N[C@@H](C)C(=O)N[C@H](C)C(=O)N(C)[C@@H](CC(C)C)C(=O)N(C)[C@@H](CC(C)C)C(=O)N(C)[C@@H](C(C)C)C(=O)N1C (stereo in doubt) [Compound 2.18.1, 3-[D-Ala]-4-[(2S,3R)-3-methyl-2-(methylamino)-5-morpholinopentanoyl]-cyclosporin] | 22 | 0.9 | 16200 | > 50000 | 0.8 | 1.5 | –
CCCC[C@@H](C)[C@@H](O)[C@H]1C(=O)N[C@@H](CC)C(=O)N(C)[C@H](C)C(=O)N(C)[C@@H]([C@@H](C)CN2CCOCC2)C(=O)N[C@@H](C(C)C)C(=O)N(C)[C@@H](CC(C)C)C(=O)N[C@@H](C)C(=O)N[C@H](C)C(=O)N(C)[C@@H](CC(C)C)C(=O)N(C)[C@@H](CC(C)C)C(=O)N(C)[C@@H](C(C)C)C(=O)N1C [Compound 2.17.7, 1-dihydro-3-[D-Ala]-4[(2S,3S)-2-Amino-3-methyl-4-morpholin-4-yl-butanoyl]-cyclosporin] (cyclo(A[dA][NMeL][NMeL][NMeV][NMe(dihydroBmt)][Abu][dNMeA][X9]V[NMeL])) | 15 | 0.7 | – | > 50000 | 0.7 | 1.5 | –
C/C=C/C[C@@H](C)[C@@H](O)[C@H]1C(=O)N[C@@H](CC)C(=O)N(C)[C@H](C)C(=O)N(C)[C@@H]([C@H](C)CCCN2CCN(CCOC)CC2)C(=O)N[C@@H](C(C)C)C(=O)N(C)[C@@H](CC(C)C)C(=O)N[C@@H](C)C(=O)N[C@H](C)C(=O)N(C)[C@@H](CC(C)C)C(=O)N(C)[C@@H](CC(C)C)C(=O)N(C)[C@@H](C(C)C)C(=O)N1C [Compound 2.19.6, 3-[D-Ala]-4-[(2S,3R)-6-(4-(2-methoxyethyl)piperazin-1-yl)-3-methyl-2-(methylamino)hexanoyl]-cyclosporin] (cyclo(A[dA][NMeL][NMeL][NMeV][MeBmt][Abu][dNMeA][X62]V[NMeL])) | 110 | 0.5 | 1600 | – | 0.7 | 0.7 | 2200
C/C=C/C[C@@H](C)[C@@H](O)[C@H]1C(=O)N[C@@H](CC)C(=O)N(C)[C@H](C)C(=O)N(C)[C@@H]([C@H](C)CN2CCN(C(C)C)CC2)C(=O)N[C@@H](C(C)C)C(=O)N(C)[C@@H](CC(C)C)C(=O)N[C@@H](C)C(=O)N[C@H](C)C(=O)N(C)[C@@H](CC(C)C)C(=O)N(C)[C@@H](CC(C)C)C(=O)N(C)[C@@H](C(C)C)C(=O)N1C [Compound 2.5.12, 3-[D-Ala]-4[(2S,3R)-2-Amino-4-(4-isopropyl-piperazin-1-yl)-butanoyl]-cyclosporin] (cyclo(A[dA][NMeL][NMeL][NMeV][MeBmt][Abu][dNMeA][X41]V[NMeL])) | 44 | 0.4 | 3100 | – | 0.7 | 1.0 | 2440
C/C=C/C[C@@H](C)[C@@H](O)[C@H]1C(=O)N[C@@H](CC)C(=O)N(C)[C@H](C)C(=O)N(C)[C@@H]([C@H](C)CN(C)CC(=O)N(C)C)C(=O)N[C@@H](C(C)C)C(=O)N(C)[C@@H](CC(C)C)C(=O)N[C@@H](C)C(=O)N[C@H](C)C(=O)N(C)[C@@H](CC(C)C)C(=O)N(C)[C@@H](CC(C)C)C(=O)N(C)[C@@H](C(C)C)C(=O)N1C [Compound 2.5.27, 3-[D-Ala]-4-[(2S,3R)-4-((2-(dimethylamino)-2-oxoethyl)(methyl)amino)-3-methyl-2-(methylamino)butanoyl]-cyclosporin] (cyclo(A[dA][NMeL][NMeL][NMeV][MeBmt][Abu][dNMeA][X55]V[NMeL])) | 26 | 0.8 | 14800 | – | 0.8 | 1.4 | 2700

From patent US9566312B2, “Cyclic peptides and use as medicines” (priority 2012, dated 2017)
